The source of these data is ChEMBL document CHEMBL1132477, “Design and synthesis of novel alpha(1)(a) adrenoceptor-selective antagonists. 2. Approaches to eliminate opioid agonist metabolites via modification of linker and 4-methoxycarbonyl-4-phenylpiperidine moiety” (J Med Chem, 1999).

Assay [1] concerns the target T1, Alpha-1D adrenergic receptor (Homo sapiens, UniProt P25100).
T1 sequence (P25100 whole entry): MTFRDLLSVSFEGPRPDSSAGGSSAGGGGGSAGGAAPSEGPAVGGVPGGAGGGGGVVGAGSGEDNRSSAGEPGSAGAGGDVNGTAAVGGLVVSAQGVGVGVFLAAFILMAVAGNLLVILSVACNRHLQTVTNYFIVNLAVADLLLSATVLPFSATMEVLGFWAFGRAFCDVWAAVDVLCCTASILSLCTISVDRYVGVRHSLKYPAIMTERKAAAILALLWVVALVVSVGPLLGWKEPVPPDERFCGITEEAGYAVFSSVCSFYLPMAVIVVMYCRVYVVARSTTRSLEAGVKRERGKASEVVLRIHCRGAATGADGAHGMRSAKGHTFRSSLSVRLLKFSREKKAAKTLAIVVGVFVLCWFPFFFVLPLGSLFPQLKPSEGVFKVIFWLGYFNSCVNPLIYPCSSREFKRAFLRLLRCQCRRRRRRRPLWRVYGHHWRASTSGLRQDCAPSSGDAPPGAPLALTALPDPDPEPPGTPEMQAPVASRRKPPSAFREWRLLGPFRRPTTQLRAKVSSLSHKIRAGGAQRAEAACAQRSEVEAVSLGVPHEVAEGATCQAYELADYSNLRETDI
Briefly: In vitro binding affinity against alpha-1D adrenergic receptor (cloned human).

Assay [2] has as its target T2, Alpha-1A adrenergic receptor (Homo sapiens, UniProt P35348).
T2 sequence (P35348 whole entry): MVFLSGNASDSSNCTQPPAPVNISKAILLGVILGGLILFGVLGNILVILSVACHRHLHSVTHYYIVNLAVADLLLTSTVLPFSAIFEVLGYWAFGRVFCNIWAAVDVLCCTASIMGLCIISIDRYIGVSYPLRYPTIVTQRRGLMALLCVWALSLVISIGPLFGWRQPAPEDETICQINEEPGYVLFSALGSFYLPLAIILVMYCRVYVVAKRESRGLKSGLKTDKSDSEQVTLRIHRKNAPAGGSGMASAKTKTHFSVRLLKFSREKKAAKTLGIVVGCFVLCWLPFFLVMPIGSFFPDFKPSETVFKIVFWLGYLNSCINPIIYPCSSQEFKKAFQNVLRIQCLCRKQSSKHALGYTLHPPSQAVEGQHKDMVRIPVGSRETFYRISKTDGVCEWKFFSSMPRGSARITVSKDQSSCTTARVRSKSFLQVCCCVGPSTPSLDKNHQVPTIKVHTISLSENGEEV
Nature of the assay: In vitro binding affinity against alpha-1A adrenergic receptor of human clones.

Assay [3] has as its target T3, Alpha-1B adrenergic receptor (Homo sapiens, UniProt P35368).
T3 sequence (P35368 whole entry): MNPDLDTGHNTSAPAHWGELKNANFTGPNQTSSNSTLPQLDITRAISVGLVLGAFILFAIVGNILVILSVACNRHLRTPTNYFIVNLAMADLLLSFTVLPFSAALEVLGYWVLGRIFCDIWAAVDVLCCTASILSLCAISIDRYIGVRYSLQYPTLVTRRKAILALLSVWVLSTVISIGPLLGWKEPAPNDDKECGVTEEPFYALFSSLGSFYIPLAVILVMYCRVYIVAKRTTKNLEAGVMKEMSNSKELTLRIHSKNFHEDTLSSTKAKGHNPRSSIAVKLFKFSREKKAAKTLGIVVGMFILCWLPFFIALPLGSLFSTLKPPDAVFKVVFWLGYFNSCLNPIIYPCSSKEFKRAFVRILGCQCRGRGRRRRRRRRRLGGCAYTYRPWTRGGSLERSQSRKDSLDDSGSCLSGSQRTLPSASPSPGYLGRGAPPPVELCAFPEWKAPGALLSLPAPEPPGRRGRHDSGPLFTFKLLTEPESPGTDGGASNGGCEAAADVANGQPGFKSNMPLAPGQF
Briefly: In vitro binding affinity against Alpha-1B adrenergic receptor cloned from human.

Regarding `COC(=O)C1=C(C)NC(=O)N(C(=O)NCCCN2CCC(c3ccc(Cl)cc3)(c3ccc(Cl)cc3)CC2)C1c1ccc(F)c(F)c1` (centres undefined), the Ki in assay [1] was found to be 560 nM; in assay [2], 6.9 nM; in assay [3], 84 nM.

Consider `CCC1=C(C(N)=O)C(c2ccc(F)c(F)c2)N(C(=O)NCCC(C)N2CCC(C(=O)OC)(c3ccccc3)CC2)C(=O)N1` (stereo in doubt; 13), for which the results for the Ki in assay [1], in assay [2] and in assay [3] were 2100 nM, 4.2 nM and 1480 nM, respectively.

`COC(=O)C1=C(C)NC(=O)N(C(=O)NCCCN2CCC3(CC2)OCCc2ccccc23)C1c1ccc(F)c(F)c1` (centres undefined): the figures for the Ki in assay [1], in assay [2] and in assay [3] were 620 nM, 0.2 nM and 490 nM, respectively.

Take `COC(=O)C1=C(C)NC(=O)N(C(=O)NCCCN2CCC(C#N)(c3ccccc3)CC2)C1c1ccc(F)c(F)c1` (centres undefined): the Ki in assay [1] worked out at 230 nM; in assay [2], 3.2 nM; in assay [3] it was 340 nM.

On to `COC(=O)C1=C(C)NC(=O)N(C(=O)NCCCN2CCC(OC(C)=O)(c3ccccc3)CC2)C1c1ccc(F)c(F)c1` (centres undefined), for which the results for the Ki in assay [1], in assay [2] and in assay [3] were 780 nM, 0.3 nM and 700 nM, respectively.

On to `CCC1=C(C(N)=O)C(c2ccc(F)c(F)c2)N(C(=O)NCCC(C)N2CCC(C(=O)OC)(c3ccccc3)CC2)C(=O)N1` (stereo in doubt; 14), for which the inhibition constant (Ki) in assay [1] was 2260 nM; in assay [2], 58 nM; in assay [3] it was 1450 nM.

Consider `COC(=O)C1=C(C)NC(=O)N(C(=O)NCCCN2CCC3(CC2)OC(=O)Cc2ccccc23)C1c1ccc(F)c(F)c1` (centres undefined), for which the inhibition constant Ki in assay [1] is 330 nM; in assay [2], 0.2 nM; in assay [3], 250 nM.

Take `COC(=O)C1=C(C)NC(=O)N(C(=O)NCCCN2CCC3(CCCc4ccccc43)CC2)C1c1ccc(F)c(F)c1` (centres undefined): the inhibition constant Ki in assay [1] was determined as 910 nM; in assay [2], 0.4 nM; in assay [3], 310 nM.

On to `COCC1=C(C(=O)OC)C(c2ccc(F)c(F)c2)N(C(=O)NCCCN2CCC(C#N)(c3ccccc3F)CC2)C(=O)N1` (centres undefined), for which the Ki in assay [1] turned out to be 930 nM; in assay [2], 5.2 nM; in assay [3] it was 730 nM.

Turning to `COC(=O)C1=C(C)NC(=O)N(C(=O)NCCCN2CCC3(CC2)C(=O)Oc2ccccc23)C1c1ccc(F)c(F)c1` (centres undefined), the Ki came out at 1560 nM in assay [1], 4.5 nM in assay [2] and 1490 nM in assay [3].

With `COC(=O)C1=C(C)NC(=O)N(CCCCCN2CCC(C(=O)OC)(c3ccccc3)CC2)C1c1ccc(F)c(F)c1` (centres undefined), the values for the inhibition constant (Ki) in assay [1], in assay [2] and in assay [3] were 150 nM, 0.1 nM and 140 nM, respectively.

Turning to `COC(=O)C1=C(C)NC(=O)N(C(=O)NCCCN2CCC3(CC2)OC(=O)c2ccccc23)C1c1ccc(F)c(F)c1` (centres undefined), the figures for the Ki in assay [1], in assay [2] and in assay [3] were 1940 nM, 7.9 nM and 2820 nM, respectively.

`COC(=O)C1=C(C)NC(=O)N(C(=O)NCCCN2CCC(OC)(c3ccccc3)CC2)C1c1ccc(F)c(F)c1` (centres undefined): the values for the inhibition constant Ki in assay [1], in assay [2] and in assay [3] were 370 nM, 1 nM and 250 nM, respectively.

`COC(=O)C1=C(C)NC(=O)N(C(=O)NCCCN2CCC3(CC2)OCc2ccccc23)C1c1ccc(F)c(F)c1` (centres undefined): the Ki was found to be 210 nM in assay [1], 0.3 nM in assay [2] and 400 nM in assay [3].

For `COC(=O)C1=C(C)NC(=O)N(C(=O)NCCCN2CCC(c3ccccc3)CC2)C1c1ccc(F)c(F)c1` (centres undefined), the Ki in assay [1] amounted to 150 nM; in assay [2] it was 0.2 nM; in assay [3], 36 nM.

As to `COC(=O)C1=C(C)NC(=O)N(C(=O)N2CCC(N3CCC(C(=O)OC)(c4ccccc4)CC3)CC2)C1c1ccc(F)c(F)c1` (centres undefined), the Ki in assay [1] was 2260 nM; in assay [2], 19 nM; in assay [3], 1940 nM.

With `COC(=O)C1=C(C)NC(=O)N(C(=O)NCCCN2CCC(c3ccc(C)cc3)(c3ccccc3C)CC2)C1c1ccc(F)c(F)c1` (centres undefined), the inhibition constant (Ki) worked out at 250 nM in assay [1], 0.06 nM in assay [2] and 80 nM in assay [3].

As to `COC(=O)C1=C(C)NC(=O)N(C(=O)NCCCN2CCC3(CCc4ccccc43)CC2)C1c1ccc(F)c(F)c1` (centres undefined), the inhibitory constant (Ki) in assay [1] came to 230 nM; in assay [2], 1.1 nM; in assay [3], 410 nM.

The term Ki denotes a dissociation constant, usually derived from enzyme kinetics or from competition with a known ligand. A lower Ki goes with a stronger hold on the target.
